Starred links: 1 amine or outer side, 2 acyl side, 3 side chain; linkers in the order of their positions; H or OH if unused. Positions of bridges follow the written chain, without caps; N, C: chain ends. Non-standard residues stand in square brackets, D forms with d. Residues, ends and D or L forms follow the SMILES beside them. *: point of attachment. Bip(4'-NHCO-C6H4-3-CH2COOH) = N[C@@H](Cc1ccc(-c2ccc(NC(=O)c3cccc(CC(=O)O)c3)cc2)cc1)C(=O)O; Bip(4'-NHCO-C6H4-4-CH2COOH) = N[C@@H](Cc1ccc(-c2ccc(NC(=O)c3ccc(CC(=O)O)cc3)cc2)cc1)C(=O)O; Bip(4'-NH) = O=C([C@H](Cc1ccc(-c2ccc(N[*:3])cc2)cc1)N[*:1])[*:2]; Indazole3carbonyl(1-CH2COOH) = O=C(O)Cn1nc(C(=O)*)c2ccccc21; Bip(4'-COOH) = N[C@@H](Cc1ccc(-c2ccc(C(=O)O)cc2)cc1)C(=O)O; Indole3carbonyl(1-CH2COOH) = O=C(O)Cn1cc(C(=O)*)c2ccccc21; dArg(ω-Bn) = N=C(NCCC[C@@H](N)C(=O)O)NCc1ccccc1; Ala(morpholin-4-yl) = N[C@@H](CN1CCOCC1)C(=O)O; Benzoyl(3-OCH2COOH) = O=C(O)COc1cccc(C(=O)*)c1; Phe(3-CONH2) = NC(=O)c1cccc(C[C@H](N)C(=O)O)c1; Cha = N[C@@H](CC1CCCCC1)C(=O)O; Tle = CC(C)(C)[C@H](N)C(=O)O; Sar = CNCC(=O)O
biological target: TNFα (Homo sapiens, UniProt P01375); test: TNF-Induced HEK-Blue Assay; format: cell-based; conditions: not given
Sequence (P01375 77-233 limits assumed): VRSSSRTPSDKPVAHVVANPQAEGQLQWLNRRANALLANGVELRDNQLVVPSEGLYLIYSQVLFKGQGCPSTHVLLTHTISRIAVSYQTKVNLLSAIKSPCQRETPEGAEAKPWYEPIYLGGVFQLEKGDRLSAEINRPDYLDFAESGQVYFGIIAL

| Compound | IC50 [nM] |
| --- | --- |
| CC(C)C[C@@H]1NC(=O)[C@H](Cc2ccc(O)cc2)NC(=O)[C@H](C(C)C)NC(=O)[C@@H]2CCCN2C(=O)[C@H](C(C)C)NC(=O)[C@@H](CCCNC(=N)NCc2ccccc2)NC(=O)[C@H](CC(=O)O)NC(=O)[C@@H]2CCCN2C(=O)CN(C)C(=O)[C@H](Cc2ccc(-c3ccc(NC(=O)c4nn(CC(=O)O)c5ccccc45)cc3)cc2)NC(=O)[C@H](Cc2ccc(-c3ccc(C(=O)O)cc3)cc2)NC(=O)[C@H](CC2CCCCC2)NC(=O)CSC[C@@H](C(=O)NCC(N)=O)NC1=O [Example 579] ({CH2CO}-[Cha][Bip(4'-COOH)][Bip(4'-NH)](Indazole3carbonyl(1-CH2COOH))[Sar]PD[dArg(ω-Bn)]VPVYLCG-NH2; thioether N-13) | < 50 |
| CC(C)C[C@@H]1NC(=O)[C@H](Cc2ccc(O)cc2)NC(=O)[C@H](C(C)C)NC(=O)[C@@H]2CCCN2C(=O)[C@H](C(C)C)NC(=O)[C@@H](CCCNC(=N)NCc2ccccc2)NC(=O)[C@H](CC(=O)O)NC(=O)[C@@H]2CCCN2C(=O)CN(C)C(=O)[C@H](Cc2ccc(-c3ccc(NC(=O)c4cn(CC(=O)O)c5ccccc45)cc3)cc2)NC(=O)[C@H](Cc2ccc(-c3ccc(C(=O)O)cc3)cc2)NC(=O)[C@H](CC2CCCCC2)NC(=O)CSC[C@@H](C(=O)NCC(N)=O)NC1=O [Example 580] ({CH2CO}-[Cha][Bip(4'-COOH)][Bip(4'-NH)](Indole3carbonyl(1-CH2COOH))[Sar]PD[dArg(ω-Bn)]VPVYLCG-NH2; thioether N-13) | < 50 |

same assay, conditions: HEK-Blue-CD40L cells, NF-kB-driven secreted alkaline phosphatase reporter; TNFα 0.5 ng/ml; 18 h; read-out: TNF induced HEK-Blue assay IC50 value

| Compound | IC50 [nM] |
| --- | --- |
| CC[C@H](C)[C@@H]1NC(=O)[C@@H](CCCNC(=N)N)NC(=O)[C@H](CC(=O)O)NC(=O)[C@@H]2CCCN2C(=O)CN(C)C(=O)[C@H](Cc2ccc(-c3ccc(NC(=O)c4cccc(OCC(=O)O)c4)cc3)cc2)NC(=O)[C@H](Cc2ccc(-c3ccc(C(=O)O)cc3)cc2)NC(=O)[C@H](CN2CCOCC2)NC(=O)CSC[C@@H](C(=O)NCC(N)=O)NC(=O)[C@H](CC(C)C)NC(=O)[C@H](Cc2cnc[nH]2)NC(=O)[C@H](C(C)C)NC(=O)[C@@H]2CCCN2C1=O [Example 577] ({CH2CO}-[Ala(morpholin-4-yl)][Bip(4'-COOH)][Bip(4'-NH)](Benzoyl(3-OCH2COOH))[Sar]PD[dR]IPVHLCG-NH2; thioether N-13) | 50 to 200 |
| CC[C@H](C)[C@@H]1NC(=O)[C@@H](CCCNC(=N)N)NC(=O)[C@H](CC(=O)O)NC(=O)[C@@H]2CCCN2C(=O)CN(C)C(=O)[C@H](Cc2ccc(-c3ccc(NC(=O)c4cccc(CC(=O)O)c4)cc3)cc2)NC(=O)[C@H](Cc2ccc(-c3ccc(C(=O)O)cc3)cc2)NC(=O)[C@H](CN2CCOCC2)NC(=O)CSC[C@@H](C(=O)NCC(N)=O)NC(=O)[C@H](CC(C)C)NC(=O)[C@H](Cc2cnc[nH]2)NC(=O)[C@H](C(C)C)NC(=O)[C@@H]2CCCN2C1=O [Example 578] ({CH2CO}-[Ala(morpholin-4-yl)][Bip(4'-COOH)][Bip(4'-NHCO-C6H4-3-CH2COOH)][Sar]PD[dR]IPVHLCG-NH2; thioether N-13) | < 50 |
| CC(C)C[C@@H]1NC(=O)[C@H](Cc2ccc(O)cc2)NC(=O)[C@H](C(C)C)NC(=O)[C@@H]2CCCN2C(=O)[C@H](C(C)C)NC(=O)[C@@H](CCCNC(=N)NCc2ccccc2)NC(=O)[C@H](CC(=O)O)NC(=O)[C@@H]2CCCN2C(=O)CN(C)C(=O)[C@H](Cc2ccc(-c3ccc(NC(=O)c4ccc(CC(=O)O)cc4)cc3)cc2)NC(=O)[C@H](Cc2ccc(-c3ccc(C(=O)O)cc3)cc2)NC(=O)[C@H](CC2CCCCC2)NC(=O)CSC[C@@H](C(=O)NCC(N)=O)NC1=O [Example 582] ({CH2CO}-[Cha][Bip(4'-COOH)][Bip(4'-NHCO-C6H4-4-CH2COOH)][Sar]PD[dArg(ω-Bn)]VPVYLCG-NH2; thioether N-13) | < 50 |
| CC[C@H](C)[C@@H]1NC(=O)[C@@H](CCCNC(=N)N)NC(=O)[C@H](CC(=O)O)NC(=O)[C@H](Cc2cnc[nH]2)NC(=O)CN(C)C(=O)[C@H](Cc2ccc(-c3ccc(NC(=O)c4cccc(OCC(=O)O)c4)cc3)cc2)NC(=O)[C@H](Cc2ccc(-c3ccc(C(=O)O)cc3)cc2)NC(=O)[C@H](CC2CCCCC2)NC(=O)CSC[C@@H](C(=O)NCC(N)=O)NC(=O)[C@H](CC(C)C)NC(=O)[C@H](Cc2cccc(C(N)=O)c2)NC(=O)[C@H](C(C)C)NC(=O)[C@@H]2CCCN2C1=O [Example 586] ({CH2CO}-[Cha][Bip(4'-COOH)][Bip(4'-NH)](Benzoyl(3-OCH2COOH))[Sar]HD[dR]IPV[Phe(3-CONH2)]LCG-NH2; thioether N-13) | < 50 |
| CC(C)C[C@@H]1NC(=O)[C@H](Cc2cccc(C(N)=O)c2)NC(=O)[C@H](C(C)C)NC(=O)[C@@H]2CCCN2C(=O)[C@H](C(C)C)NC(=O)[C@@H](CCCNC(=N)N)NC(=O)[C@H](CC(=O)O)NC(=O)[C@H](Cc2cnc[nH]2)NC(=O)CN(C)C(=O)[C@H](Cc2ccc(-c3ccc(NC(=O)c4cccc(OCC(=O)O)c4)cc3)cc2)NC(=O)[C@H](Cc2ccc(-c3ccc(C(=O)O)cc3)cc2)NC(=O)[C@H](CC2CCCCC2)NC(=O)CSC[C@@H](C(=O)NCC(N)=O)NC1=O [Example 587] ({CH2CO}-[Cha][Bip(4'-COOH)][Bip(4'-NH)](Benzoyl(3-OCH2COOH))[Sar]HD[dR]VPV[Phe(3-CONH2)]LCG-NH2; thioether N-13) | < 50 |
| CC[C@H](C)[C@@H]1NC(=O)[C@@H](CCCNC(=N)N)NC(=O)[C@H](CC(=O)O)NC(=O)[C@H](Cc2cnc[nH]2)NC(=O)CN(C)C(=O)[C@H](Cc2ccc(-c3ccc(NC(=O)c4cccc(CC(=O)O)c4)cc3)cc2)NC(=O)[C@H](Cc2ccc(-c3ccc(C(=O)O)cc3)cc2)NC(=O)[C@H](CC2CCCCC2)NC(=O)CSC[C@@H](C(=O)NCC(N)=O)NC(=O)[C@H](CC(C)C)NC(=O)[C@H](Cc2cccc(C(N)=O)c2)NC(=O)[C@H](C(C)C)NC(=O)[C@@H]2CCCN2C1=O [Example 588] ({CH2CO}-[Cha][Bip(4'-COOH)][Bip(4'-NHCO-C6H4-3-CH2COOH)][Sar]HD[dR]IPV[Phe(3-CONH2)]LCG-NH2; thioether N-13) | < 50 |
| CC(C)C[C@@H]1NC(=O)[C@H](Cc2cccc(C(N)=O)c2)NC(=O)[C@H](C(C)C)NC(=O)[C@@H]2CCCN2C(=O)[C@H](C(C)C)NC(=O)[C@@H](CCCNC(=N)N)NC(=O)[C@H](CC(=O)O)NC(=O)[C@H](Cc2cnc[nH]2)NC(=O)CN(C)C(=O)[C@H](Cc2ccc(-c3ccc(NC(=O)c4cccc(OCC(=O)O)c4)cc3)cc2)NC(=O)[C@H](Cc2ccc(-c3ccc(C(=O)O)cc3)cc2)NC(=O)[C@H](C(C)(C)C)NC(=O)CSC[C@@H](C(=O)NCC(N)=O)NC1=O [Example 590] ({CH2CO}-[Tle][Bip(4'-COOH)][Bip(4'-NH)](Benzoyl(3-OCH2COOH))[Sar]HD[dR]VPV[Phe(3-CONH2)]LCG-NH2; thioether N-13) | < 50 |

The remaining lines, values ahead:

| IC50 [nM] | Compound |
| --- | --- |
| 50 to 200 | CC[C@H](C)[C@@H]1NC(=O)[C@@H](CCCNC(=N)N)NC(=O)[C@H](CC(=O)O)NC(=O)[C@@H]2CCCN2C(=O)CN(C)C(=O)[C@H](Cc2ccc(-c3ccc(NC(=O)c4ccc(CC(=O)O)cc4)cc3)cc2)NC(=O)[C@H](Cc2ccc(-c3ccc(C(=O)O)cc3)cc2)NC(=O)[C@H](C(C)(C)C)NC(=O)CSC[C@@H](C(=O)NCC(N)=O)NC(=O)[C@H](CC(C)C)NC(=O)[C@H](Cc2cnc[nH]2)NC(=O)[C@H](C(C)C)NC(=O)[C@@H]2CCCN2C1=O [Example 576] ({CH2CO}-[Tle][Bip(4'-COOH)][Bip(4'-NHCO-C6H4-4-CH2COOH)][Sar]PD[dR]IPVHLCG-NH2; thioether N-13) |
| 50 to 200 | CC(C)C[C@@H]1NC(=O)[C@H](Cc2ccc(O)cc2)NC(=O)[C@H](C(C)C)NC(=O)[C@@H]2CCCN2C(=O)[C@H](C(C)C)NC(=O)[C@@H](CCCNC(=N)NCc2ccccc2)NC(=O)[C@H](CC(=O)O)NC(=O)[C@@H]2CCCN2C(=O)CN(C)C(=O)[C@H](Cc2ccc(-c3ccc(NC(=O)c4cccc(CC(=O)O)c4)cc3)cc2)NC(=O)[C@H](Cc2ccc(-c3ccc(C(=O)O)cc3)cc2)NC(=O)[C@H](CC2CCCCC2)NC(=O)CSC[C@@H](C(=O)NCC(N)=O)NC1=O [Example 583] ({CH2CO}-[Cha][Bip(4'-COOH)][Bip(4'-NHCO-C6H4-3-CH2COOH)][Sar]PD[dArg(ω-Bn)]VPVYLCG-NH2; thioether N-13) |
| 50 to 200 | CC[C@H](C)[C@@H]1NC(=O)[C@@H](CCCNC(=N)NCc2ccccc2)NC(=O)[C@H](CC(=O)O)NC(=O)[C@H](Cc2cnc[nH]2)NC(=O)CN(C)C(=O)[C@H](Cc2ccc(-c3ccc(NC(=O)c4ccc(CC(=O)O)cc4)cc3)cc2)NC(=O)[C@H](Cc2ccc(-c3ccc(C(=O)O)cc3)cc2)NC(=O)[C@H](CC2CCCCC2)NC(=O)CSC[C@@H](C(=O)NCC(N)=O)NC(=O)[C@H](CC(C)C)NC(=O)[C@H](Cc2cnc[nH]2)NC(=O)[C@H](C(C)C)NC(=O)[C@@H]2CCCN2C1=O [Example 584] ({CH2CO}-[Cha][Bip(4'-COOH)][Bip(4'-NHCO-C6H4-4-CH2COOH)][Sar]HD[dArg(ω-Bn)]IPVHLCG-NH2; thioether N-13) |
| 50 to 200 | CC[C@H](C)[C@@H]1NC(=O)[C@@H](CCCNC(=N)NCc2ccccc2)NC(=O)[C@H](CC(=O)O)NC(=O)[C@H](Cc2cnc[nH]2)NC(=O)CN(C)C(=O)[C@H](Cc2ccc(-c3ccc(NC(=O)c4cccc(OCC(=O)O)c4)cc3)cc2)NC(=O)[C@H](Cc2ccc(-c3ccc(C(=O)O)cc3)cc2)NC(=O)[C@H](CC2CCCCC2)NC(=O)CSC[C@@H](C(=O)NCC(N)=O)NC(=O)[C@H](CC(C)C)NC(=O)[C@H](Cc2cnc[nH]2)NC(=O)[C@H](C(C)C)NC(=O)[C@@H]2CCCN2C1=O [Example 585] ({CH2CO}-[Cha][Bip(4'-COOH)][Bip(4'-NH)](Benzoyl(3-OCH2COOH))[Sar]HD[dArg(ω-Bn)]IPVHLCG-NH2; thioether N-13) |
| < 50 | CC[C@H](C)[C@@H]1NC(=O)[C@@H](CCCNC(=N)N)NC(=O)[C@H](CC(=O)O)NC(=O)[C@H](Cc2cnc[nH]2)NC(=O)CN(C)C(=O)[C@H](Cc2ccc(-c3ccc(NC(=O)c4ccc(CC(=O)O)cc4)cc3)cc2)NC(=O)[C@H](Cc2ccc(-c3ccc(C(=O)O)cc3)cc2)NC(=O)[C@H](CC2CCCCC2)NC(=O)CSC[C@@H](C(=O)NCC(N)=O)NC(=O)[C@H](CC(C)C)NC(=O)[C@H](Cc2cccc(C(N)=O)c2)NC(=O)[C@H](C(C)C)NC(=O)[C@@H]2CCCN2C1=O [Example 589] ({CH2CO}-[Cha][Bip(4'-COOH)][Bip(4'-NHCO-C6H4-4-CH2COOH)][Sar]HD[dR]IPV[Phe(3-CONH2)]LCG-NH2; thioether N-13) |
